The target of this assay is T1, streptavidin (Streptomyces avidinii, UniProt P22629).
T1 construct: purchased Sigma-Aldrich
Briefly: Competitive inhibition of streptavidin capture on biotin-PDTF by free biotin. The format is binding. The following applies: streptavidin preincubated 30 min with free biotin; chip 0.25 pmol/monolayer biotin (1% biotin-PDTF). From the text:
The remaining free protein (in this case streptavidin) concentration in solution can then be estimated with the MILD-MALDI-MS approach.
The surfaces were allowed to air dry.

Take `O=C(O)CCCC[C@@H]1SC[C@@H]2NC(=O)N[C@@H]21` [biotin]: the “free biotin excess over streptavidin at which competition is clearly seen” value is 100 -fold.

Values taken from patent US20030104451A1, “Arrays using polymerized monomolecular films and methods for using and manufacturing the same” (priority 2001, published 2003).
